A short description of series [1]: Pharmacokinetics in Balbc mice. The series is classed as in vivo. To be noted: Balbc male mice. The procedure: The pharmacokinetic parameters for several compounds listed above were determined in mice following IV (intravenous) or IP (intraperitoneal) administration. Briefly, six Balbc male mice 7 to 8 weeks old were used for each study. A dose of 5 mg/kg or 10 mg/kg was administered using a 5% DMSO/90% Captisol (20% in water) solution for ACT-CK-050 or FFF for ACT-CK-154. Blood samples were collected at different intervals. Plasma samples were extracted and analyzed using an LC-MS/MS method. Results are represented in FIGS. 1 and 2.

For a further series, the target named is T1, Choline Kinase α (CKα) (Homo sapiens, UniProt P35790).
T1 construct: GST; made in house; host or cells: E. coli BL21(DE3)
T1 sequence (P35790 whole entry): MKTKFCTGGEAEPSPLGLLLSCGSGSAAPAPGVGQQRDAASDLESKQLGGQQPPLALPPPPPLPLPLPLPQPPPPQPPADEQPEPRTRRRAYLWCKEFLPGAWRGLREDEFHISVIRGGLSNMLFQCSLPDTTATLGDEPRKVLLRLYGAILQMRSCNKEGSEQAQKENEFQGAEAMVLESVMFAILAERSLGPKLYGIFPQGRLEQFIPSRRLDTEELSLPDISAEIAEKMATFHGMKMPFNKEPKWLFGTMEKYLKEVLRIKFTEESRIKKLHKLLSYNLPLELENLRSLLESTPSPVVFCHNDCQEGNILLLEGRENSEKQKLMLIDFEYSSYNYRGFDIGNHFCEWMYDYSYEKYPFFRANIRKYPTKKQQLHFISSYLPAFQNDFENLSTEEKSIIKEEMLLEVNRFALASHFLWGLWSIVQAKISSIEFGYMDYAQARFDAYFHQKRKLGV
Kind of series: Inhibition of Choline Kinase α, kinase activity assay. The series is classed as biochemical. To be noted: recombinant CKα expressed in E. coli. The procedure:
CKα was prepared by expression in E. coli (Bl21(DE3)) and purified by GST column and column chromatography. […] The recombinant protein was pure and active as determined by the results of a kinase activity assay.

The subject of a further series is Jurkat. Nature of the series: Inhibition of cell proliferation (Jurkat). The following applies: Homo sapiens, Table 2B, Leukemia, average, read-out: IC50 Aver, Jurkat. The series is classed as cell-based.
A further series has as its system U937. Nature of the series: Inhibition of cancer cell proliferation, Alamar Blue assay (U937). Format: cell-based. To be noted: Homo sapiens, U-937. The procedure:
(§1) The ability of the compounds described herein to kill or inhibit the proliferation of cancer cells was measured using the Alamar Blue assay using a 72 hours exposure. Results for different cancer cell lines are shown in, the Table 2 below (hematopoietic cell lines U937 and K562; MDA-MB-231 a breast cancer cell line; and NCI-H82 and Calu-6, two lung cancer cell lines): […]

The next series relates to NCI-H2122. Kind of series: Inhibition of cell proliferation (NCI-H2122). The series is classed as cell-based. To be noted: Homo sapiens, Table 2B, Lung, average, read-out: IC50 Aver, NCI-H2122.
The test system of another series is K562. Kind of series: Inhibition of cancer cell proliferation, Alamar Blue assay (K562). Format: cell-based. The following applies: Homo sapiens. The procedure:
as §1

The test system of the next series is PC3. Nature of the series: Inhibition of cell proliferation (PC3). The series is classed as cell-based. To be noted: Homo sapiens, PC-3; Table 2B; Prostate; average; read-out: IC50 Aver, PC3.
In the next series the test system is MKN-45. Kind of series: Inhibition of cell proliferation (MKN-45). Format: cell-based. To be noted: Homo sapiens, Table 2B, Gastric, average, read-out: IC50 Aver, MKN-45.
Another series deals with HT-29. Kind of series: Inhibition of cell proliferation (HT-29). The series is classed as cell-based. The following applies: Homo sapiens, Table 2B, Colon, average, read-out: IC50 Aver, HT-29.
Another series relates to DU145. Kind of series: Inhibition of cell proliferation (DU145). Format: cell-based. The following applies: Homo sapiens, DU-145; Table 2B; Prostate; average; read-out: IC50 Aver, DU145.
In the next series the test system is H209. Kind of series: Inhibition of cell proliferation (H209). The following applies: Homo sapiens, NCI-H209; Table 2B; Lung; average; read-out: IC50 Aver, H209. The series is classed as cell-based.
The next series concerns NCI-H82. Kind of series: Inhibition of cancer cell proliferation, Alamar Blue assay (NCI-H82). Format: cell-based. To be noted: Homo sapiens. The procedure:
as §1

A further series concerns A431. Nature of the series: Inhibition of cell proliferation (A431). Format: cell-based. To be noted: Homo sapiens, A-431; Table 2B; epidermi; average; read-out: IC50 Aver, A431.
The test system of the next series is Hep G2. Kind of series: Inhibition of cell proliferation (Hep G2). Format: cell-based. The following applies: Homo sapiens, HepG2; Table 2B; Liver; average; read-out: IC50 Aver, Hep G2.
The next series relates to MDA-MB-231. Kind of series: Inhibition of cancer cell proliferation, Alamar Blue assay (MDA-MB-231). Format: cell-based. The following applies: Homo sapiens. The procedure: as §1
Another series concerns HCT-116. Kind of series: Inhibition of cell proliferation (HCT-116). The series is classed as cell-based. To be noted: Homo sapiens, Table 2B, Colon, average, read-out: IC50 Aver, HCT-116.
For another series, the system named is Caco2 cells. Nature of the series: Permeability in Caco2 cells. The series is classed as in vitro ADME. The following applies: Caco2. An excerpt: (§2) The determination of the permeability in Caco2 cells is widely used in screening compounds to assess intestinal drug transport and predict absorption rates.
(Passage across Caco-2 layers is used to estimate intestinal permeability.)

A short description of series [2]: Permeability in Caco2 cells. Format: in vitro ADME. The following applies: human, Caco-2, Caco2 cells.
Text: as §2

Another series concerns Hela. Kind of series: Inhibition of cell proliferation (Hela). Format: cell-based. The following applies: Homo sapiens, Table 2B, Cervical, average, read-out: IC50 Aver, Hela.
A short description of series [3]: Microsomal stability in human liver microsomes. The series is classed as in vitro ADME. The source says: Microsomal stability in vitro in different biologic media and species is ascertained when screening compounds to evaluate the rate at which a compound undergoes metabolism.
A further series concerns Colo-205. Kind of series: Inhibition of cell proliferation (Colo-205). The series is classed as cell-based. The following applies: Homo sapiens, Table 2B, Colorectal, average, read-out: IC50 Aver, Colo-205.
The next series has as its system Calu-6. Nature of the series: Inhibition of cancer cell proliferation, Alamar Blue assay (Calu-6). The series is classed as cell-based. The following applies: Homo sapiens. The procedure: as §1
Background: Alamar Blue is a resazurin reagent that responds to reducing activity.

Setting [4] is: IV or IP, 5 mg/kg or 10 mg/kg, 5% DMSO/90% Captisol solution.
Setting [5] is: Table 2A, Alamar Blue, 72 hours exposure, read-out: IC50s U937.
Where [6] appears, read: Table 2A, Alamar Blue, 72 hours exposure, read-out: IC50s K562.
The mark [7] stands for this setting: Table 2A, Alamar Blue, 72 hours exposure, read-out: IC50s NCI-H82.
The mark [8] stands for this setting: Table 2A, Alamar Blue, 72 hours exposure, read-out: IC50s MDA-MB231.
Setting [9] is: comparison of A-B and B-A values.
[10] abbreviates: Table 2A, Alamar Blue, 72 hours exposure, read-out: IC50s Calu-6.

We go through six compounds from patent publication US20110257211A1, “Small-Molecule Choline Kinase Inhibitors as Anti-Cancer Therapeutics” (ADVANCED CANCER THERAPEUTICS, LLC, priority 2010, published 2011).

Like-named read-outs stand apart in the source and are kept apart here. A value given as a limit tells only on which side of the number the result lay.

As for `CCOc1ccc(-c2nnc(SCC(=O)Nc3cc(C)cc(C)c3)[nH]2)cc1` [ACT-CK-050, N-(3,5-Dimethyl-phenyl)-2-[5-(4-ethoxy-phenyl)-4H-[1,2,4]triazol-3-ylsulfanyl]-acetamide], the “Clearance (in words)” value in [1] (setting [4]) is reported as “cleared too quickly”. Besides, in series [1] (setting [4]), the “Plasma levels (in words)” value was “too low”. The IC50 was 20000 nM on Choline Kinase α (CKα); 10400 nM in the series on Jurkat; 60 nM in the series with U937 (setting [5]); 63 nM in the series with U937 (Table 2B, lymphoma, average, read-out: IC50 Aver, U937); 173 nM in the series with NCI-H2122; 40 nM in the series with K562 (setting [6]). Besides, the IC50 in the series on K562 (Table 2B, Leukemia, average, read-out: IC50 Aver, K562) is 43 nM; in the series with PC3 it was 240 nM; with MKN-45, 47 nM; in the series on HT-29, 89700 nM; in the series on DU145 it was 597 nM; in the series on H209 it was 367 nM. Also, the IC50 with NCI-H82 (setting [7]) worked out at 90 nM; in the series on NCI-H82 (Table 2B, Lung, average, read-out: IC50 Aver, NCI-H82) it was 96 nM; in the series on A431, 117 nM; with Hep G2, 163 nM; in the series on MDA-MB-231 (setting [8]), 18500 nM; in the series on MDA-MB-231 (Table 2B, Breast, average, read-out: IC50 Aver, MDA-MB-231) it was 18500 nM. For the same compound, the IC50 in the series on HCT-116 was 523 nM; in the series with Hela, 22 nM; in the series on Colo-205 it was 240 nM; in the series with Calu-6 (setting [10]) it was 60 nM; in the series on Calu-6 (Table 2B, Lung, average, read-out: IC50 Aver, Calu-6) it was 57 nM. In addition, in the series on Caco2 cells (setting [9]), the “Pgp substrate (in words)” value was “not a Pgp substrate”. The “active efflux (in words)” value in the series with Caco2 cells (setting [9]) is on record as “not actively effluxed out the cells”. Besides, the “permeability properties (in words)” value in the series with Caco2 cells (high permeability determined as Papp>10×10^−6 cm/s) was “high permeability”. The same compound registered a Papp A→B in [2] (apical to basal) of 46.1 ×10⁻⁶ cm/s. In series [2] (basal to apical), this compound gave a Papp B→A of 16.2 ×10⁻⁶ cm/s. For the same compound, the “% Metabolized (mean)” value in series [3] is 99%.

`CCOc1ccc(-c2nnc(SCC(=O)Nc3cc(OC)cc(OC)c3)[nH]2)cc1` [ACT-CK-109, N-(3,5-Dimethoxy-phenyl)-2-[5-(4-ethoxy-phenyl)-4H-[1,2,4]triazol-3-ylsulfanyl]-acetamide]: the IC50 on Choline Kinase α (CKα) came out at 18000 nM.

Turning to `CCOc1ccc(-c2nnc(SCC(=O)N(C)c3cc(C)cc(C)c3)[nH]2)cc1` [ACT-CK-153, N-(3,5-Dimethyl-phenyl)-2-[5-(4-ethoxy-phenyl)-4H-[1,2,4]triazol-3-ylsulfanyl]-N-methyl-acetamide], at Choline Kinase α (CKα), the IC50 was found to be 30000 nM. In series [3], the “% Metabolized (mean)” value is recorded as 99%.

In series [1] (IV, 5 mg/kg), `CCOc1ccc(-c2nnc(SCC(=O)Nc3cc(C)cc(C)c3)[nH]2)cc1F` [ACT-CK-154, N-(3,5-Dimethyl-phenyl)-2-[5-(4-ethoxy-3-fluoro-phenyl)-4H-[1,2,4]triazol-3-ylsulfanyl]acetamide] returned a Cmax of 3639 ng/mL. Further, the T1/2b in series [1] (IV, 5 mg/kg) turned out to be 9 min. The compound further had a Vd in series [1] (IV, 5 mg/kg) of 1.66 L/kg. The IC50 in the series with U937 (setting [5]) is 20 nM; in the series on K562 (setting [6]) it was 800 nM; in the series on NCI-H82 (setting [7]), 160 nM; with MDA-MB-231 (setting [8]) it was 2600 nM; in the series on Calu-6 (setting [10]), 30 nM. Moreover, in series [3], the “% Metabolized (mean)” value was found to be 99%.

With `CCOc1ccc(-c2nnc(SCC(=O)Nc3cccc(OC)c3)[nH]2)cc1` [ACT-CK-157, 2-[5-(4-Ethoxy-phenyl)-4H-[1,2,4]triazol-3-ylsulfanyl]-N-(3-methoxy-phenyl)-acetamide], the IC50 at Choline Kinase α (CKα) was 50000 nM.

Turning to `CCOc1ccc(-c2nnc(SCC(=O)NC3CC(C)(C)NC(C)(C)C3)[nH]2)cc1` [ACT-CK-170, 2-[5-(4-Ethoxy-phenyl)-4H-[1,2,4]triazol-3-ylsulfanyl]-N-(2,2,6,6-tetramethyl-piperidin-4-yl)-acetamide], on Choline Kinase α (CKα), the IC50 was greater than 100000 nM.

The Papp A→B is the apparent permeability from the apical to the basolateral side of a cell layer. A lower Papp A→B goes with poor permeation. By Papp B→A is commonly meant the apparent permeability from the basolateral to the apical side of a cell layer. The term Cmax denotes the peak of the concentration-time curve. As usually defined, the Vd is a proportionality between amount in the body and measured concentration, not a real space. Low readings indicate confinement near the circulation, high ones extensive tissue distribution.
